In patent US8735384B2, “Amino heteroaryl compounds as beta-secretase modulators and methods of use” (Amgen Inc., priority 2010, dated 2014):
Like-named read-outs stand apart in the source and are kept apart here.

What was measured:
[1] = test system: Aβ40 in conditioned medium of cells stably expressing Amyloid Precursor Protein (APP); assay: In vitro BACE cell-based assay (HEK cell assay), Aβ40 sandwich ELISA; conditions: Homo sapiens, HEK293, 24 h, inhibition of Aβ40, 24 h incubation, read-out: HEK cell assay (IC50 class)
Outline: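 Aβ40 in conditioned medium measured after 24 h compound exposure (10-point series, 100 μM or 10 μM start, 0.1% DMSO) of cells stably expressing APP, seeded 40K/well. Detection: pAb40/6E10-biotin sandwich ELISA at 4°C with time-resolved europium read-out; IC50 derived from percent of control.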

BACE1 = BACE1 (Homo sapiens, UniProt P56817); assay: In vitro enzymatic BACE FRET assay; assay type: biochemical; conditions: beta secretase enzyme 0.2 nM, FRET substrate 50 nM, pH 4.2
Chain of BACE1 (P56817 46-501, species assumed): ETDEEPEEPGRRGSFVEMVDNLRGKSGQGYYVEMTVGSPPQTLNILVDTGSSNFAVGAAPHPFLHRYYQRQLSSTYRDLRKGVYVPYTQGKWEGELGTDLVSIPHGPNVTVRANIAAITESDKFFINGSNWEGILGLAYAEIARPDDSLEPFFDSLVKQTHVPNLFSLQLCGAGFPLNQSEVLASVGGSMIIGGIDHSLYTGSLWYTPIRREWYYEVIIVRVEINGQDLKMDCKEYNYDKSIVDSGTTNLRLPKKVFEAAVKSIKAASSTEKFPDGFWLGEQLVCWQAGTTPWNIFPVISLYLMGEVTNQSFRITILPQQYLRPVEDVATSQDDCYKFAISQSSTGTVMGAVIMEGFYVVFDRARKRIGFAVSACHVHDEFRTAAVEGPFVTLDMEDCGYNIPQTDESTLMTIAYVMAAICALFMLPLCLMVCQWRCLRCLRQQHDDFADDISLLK
Outline: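 Enzyme activity was measured as release of quenching from a 50 nM fluorophore/quencher peptide spanning the cleavage site, over 1 h. This followed 1 h pre-incubation of 0.2 nM enzyme with compound dilutions at pH 4.2 (acetate, 10% DMSO, genapol). Tris addition ended the reaction before fluorescence was measured.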

[2] = read-out: BACE1 FRET assay (IC50 class)

| IC50 [1] [nM] | IC50 (BACE1; [2]) [nM] | IC50 (BACE1; read-out: BACE1 FRET assay (IC50, numeric)) [nM] | Compound |
| --- | --- | --- | --- |
| 1010 to 5000 | 100 to 500 | – | Nc1nc2ccc(-c3ccccc3-n3ncc4c3CCCC4)cc2cc1N1CCOCC1 [Example 33, 3-morpholino-6-(2-(4,5,6,7-tetrahydro-1H-indazol-1-yl)phenyl)quinolin-2-amine] |
| 1010 to 5000 | 100 to 500 | – | Cc1ccc(C2(C)CN(c3cc4cc(-c5c(C)cccc5C(=O)N5CCCC5)ccc4nc3N)CCO2)cc1 (centres unmarked) [Example 217, (2-(2-amino-3-(2-methyl-2-p-tolylmorpholino)quinolin-6-yl)-3-methylphenyl)(pyrrolidin-1-yl)methanone] |
| 1010 to 5000 | < 100 | – | Cc1cccc(Cc2ccccc2F)c1-c1ccc2nc(N)c(N3CCOCC3)cc2c1 [Example 202, 6-(2-(2-fluorobenzyl)-6-methylphenyl)-3-morpholinoquinolin-2-amine] |
| 1010 to 5000 | < 100 | – | Cc1cccc(C(=O)c2cccc(C)c2-c2ccc3nc(N)c(N4CCOCC4)cc3c2)c1 [Example 173, (2-(2-amino-3-morpholinoquinolin-6-yl)-3-methylphenyl)(m-tolyl)methanone] |
| > 5000 | 100 to 500 | – | Nc1nc2ccc(-c3ccccc3OCc3ccccc3)cc2cc1N1CCOCC1 [Example 53, 6-(2-(benzyloxy)phenyl)-3-morpholinoquinolin-2-amine] |
| 1010 to 5000 | < 100 | – | COc1ccc(C(=O)c2cccc(C)c2-c2ccc3nc(N)c(N4CCOCC4)cc3c2)cc1 [Example 175, (2-(2-amino-3-morpholinoquinolin-6-yl)-3-methylphenyl)(4-methoxyphenyl)methanone] |
| 1010 to 5000 | 100 to 500 | – | Cc1cccc(C(=O)N2CCOCC2)c1-c1ccc2nc(N)c(N3CCOCC3)cc2c1 [Example 59, (2-(2-amino-3-morpholinoquinolin-6-yl)-3-methylphenyl)(morpholino)methanone] |
| > 5000 | 501 to 1000 | – | Cc1cccc(-n2cc(Cl)cn2)c1-c1ccc2nc(N)c(N3CCOCC3)cc2c1 [Example 204, 6-(2-(4-chloro-1H-pyrazol-1-yl)-6-methylphenyl)-3-morpholinoquinolin-2-amine] |
| 1010 to 5000 | 100 to 500 | – | Cc1cccc(C(=O)N(C)CCc2ccccc2)c1-c1ccc2nc(N)c(N3CCOCC3)cc2c1 [Example 137, 2-(2-amino-3-morpholinoquinolin-6-yl)-N,3-dimethyl-N-phenethylbenzamide] |
| 100 to 500 | < 100 | – | Cc1cccc(C(=O)N2CCCC2)c1-c1ccc2nc(N)c(N3CCOCC3)cc2c1 [Example 1, (2-(2-amino-3-morpholinoquinolin-6-yl)-3-methylphenyl)(pyrrolidin-1-yl)methanone] |
| 1010 to 5000 | 501 to 1000 | – | Cc1cccc(OC2CCOC2)c1-c1ccc2nc(N)c(N3CCOCC3)cc2c1 (centres unmarked) [Example 54, 6-(2-methyl-6-(tetrahydrofuran-3-yloxy)phenyl)-3-morpholinoquinolin-2-amine] |

Continued, compound first:

| Compound | IC50 [1] [nM] | IC50 (BACE1; [2]) [nM] | IC50 (BACE1; read-out: BACE1 FRET assay (IC50, numeric)) [nM] |
| --- | --- | --- | --- |
| CCC1CN(c2cc3cc(-c4c(C)cccc4C(=O)N4CCCC4)ccc3nc2N)CCO1 (centres unmarked) [Example 21, (2-(2-amino-3-(2-ethylmorpholino)quinolin-6-yl)-3-methylphenyl)(pyrrolidin-1-yl)methanone] | 1010 to 5000 | < 100 | – |
| Cc1cccc(C(=O)N(C)CC(C)(C)C)c1-c1ccc2nc(N)c(N3CCOCC3)cc2c1 [Example 41, 2-(2-amino-3-morpholinoquinolin-6-yl)-N,3-dimethyl-N-neopentylbenzamide] | 501 to 1000 | < 100 | – |
| Cc1cccc(COc2cc(C(F)(F)F)ccc2Cl)c1-c1ccc2nc(N)c(N3CCOCC3)cc2c1 [Example 208, 6-(2-((2-chloro-5-(trifluoromethyl)phenoxy)methyl)-6-methylphenyl)-3-morpholinoquinolin-2-amine] | 100 to 500 | < 100 | – |
| Cc1cccnc1C(N)c1cccc(C)c1-c1ccc2nc(N)c(N3CCOCC3)cc2c1 (centres unmarked) [Example 194, 6-(2-(amino(3-methylpyridin-2-yl)methyl)-6-methylphenyl)-3-morpholinoquinolin-2-amine] | 100 to 500 | 501 to 1000 | – |
| COc1ccccc1C(N)c1cccc(C)c1-c1ccc2nc(N)c(N3CCOCC3)cc2c1 (centres unmarked) [Example 195, 6-(2-(amino(2-methoxyphenyl)methyl)-6-methylphenyl)-3-morpholinoquinolin-2-amine] | < 100 | < 100 | – |
| CCCN(CC1CC1)C(=O)c1cccc(C)c1-c1ccc2nc(N)c(N3CCOCC3)cc2c1 [Example 111, 2-(2-amino-3-morpholinoquinolin-6-yl)-N-(cyclopropylmethyl)-3-methyl-N-propylbenzamide] | > 5000 | – | 1540 |
| Cc1cccc(C(=O)N2CCSCC2)c1-c1ccc2nc(N)c(N3CCOCC3)cc2c1 [Example 91, (2-(2-amino-3-morpholinoquinolin-6-yl)-3-methylphenyl)(thiomorpholino)methanone] | 1010 to 5000 | < 100 | – |
| Cc1cccc(C(N)c2ncccc2Cl)c1-c1ccc2nc(N)c(N3CCOCC3)cc2c1 (centres unmarked) [Example 197, 6-(2-(amino(3-chloropyridin-2-yl)methyl)-6-methylphenyl)-3-morpholinoquinolin-2-amine] | 100 to 500 | 100 to 500 | – |
| Cc1cccc(C(=O)CC(C)C)c1-c1ccc2nc(N)c(N3CCOCC3)cc2c1 [Example 182, 1-(2-(2-amino-3-morpholinoquinolin-6-yl)-3-methylphenyl)-3-methylbutan-1-one] | 501 to 1000 | < 100 | – |
| Cc1cccc(C(=O)N2CCCC2)c1-c1ccc2nc(N)c(N3CCOC(CC(C)C)C3)cc2c1 (centres unmarked) [Example 213, (2-(2-amino-3-(2-isobutylmorpholino)quinolin-6-yl)-3-methylphenyl)(pyrrolidin-1-yl)methanone] | 1010 to 5000 | < 100 | – |
| Cc1cccc(C(=O)N2CC(F)(F)C2)c1-c1ccc2nc(N)c(N3CCOCC3)cc2c1 [Example 99, (2-(2-amino-3-morpholinoquinolin-6-yl)-3-methylphenyl)(3,3-difluoroazetidin-1-yl)methanone] | 501 to 1000 | 100 to 500 | – |
| Nc1nc2ccc(-c3c(C#CC4CCCCC4)cccc3C(=O)N3CCCC3)cc2cc1N1CCOCC1 [Example 167, (2-(2-amino-3-morpholinoquinolin-6-yl)-3-(cyclohexylethynyl)phenyl)(pyrrolidin-1-yl)methanone] | < 100 | < 100 | – |
| Cc1cccc(C(O)c2ccccc2)c1-c1ccc2nc(N)c(N3CCOCC3)cc2c1 (centres unmarked) [Example 199, (2-(2-amino-3-morpholinoquinolin-6-yl)-3-methylphenyl)(phenyl)methanol] | 100 to 500 | < 100 | – |
| Cc1cccc(C(=O)N2CCC[C@H]2C(F)(F)F)c1-c1ccc2nc(N)c(N3CCOCC3)cc2c1 [Example 94, (S)-(2-(2-amino-3-morpholinoquinolin-6-yl)-3-methylphenyl)(2-(trifluoromethyl)pyrrolidin-1-yl)methanone] | 1010 to 5000 | 100 to 500 | – |
| Cc1cccc(C(=O)N2CC=CC2)c1-c1ccc2nc(N)c(N3CCOCC3)cc2c1 [Example 90, (2-(2-amino-3-morpholinoquinolin-6-yl)-3-methylphenyl)(2,5-dihydro-1H-pyrrol-1-yl)methanone] | 501 to 1000 | < 100 | – |
| Cc1cccc(C(=O)N2CCCC2)c1-c1ccc2nc(N)c(N3CCOC[C@H]3C)cc2c1 [Example 20, (R)-(2-(2-amino-3-(3-methylmorpholino)quinolin-6-yl)-3-methylphenyl)(pyrrolidin-1-yl)methanone] | 501 to 1000 | < 100 | – |
| Nc1nc2ccc(-c3ccccc3C(=O)c3ccccc3)cc2cc1N1CCOCC1 [Example 151, (2-(2-amino-3-morpholinoquinolin-6-yl)phenyl)(phenyl)methanone] | 1010 to 5000 | 100 to 500 | – |
| Cc1cccc(C(=O)c2ccccn2)c1-c1ccc2nc(N)c(C3CCOCC3)cc2c1 [Example 38, (2-(2-amino-3-(tetrahydro-2H-pyran-4-yl)quinolin-6-yl)-3-methylphenyl)(pyridin-2-yl)methanone] | 100 to 500 | < 100 | – |
| Nc1nc2ccc(-c3ccccc3F)cc2cc1N1CCOCC1 [Example 220, 6-(2-fluorophenyl)-3-morpholinoquinolin-2-amine] | > 5000 | 1010 to 5000 | – |
| Nc1nc2ccc(-c3cccc(Cl)c3C(=O)N3CCCC3)cc2cc1N1CCOCC1 [Example 141, (2-(2-amino-3-morpholinoquinolin-6-yl)-6-chlorophenyl)(pyrrolidin-1-yl)methanone] | > 5000 | 1010 to 5000 | – |
| Cc1cccc(C(=O)N(C)CC(F)(F)F)c1-c1ccc2nc(N)c(N3CCOCC3)cc2c1 [Example 100, 2-(2-amino-3-morpholinoquinolin-6-yl)-N,3-dimethyl-N-(2,2,2-trifluoroethyl)benzamide] | 1010 to 5000 | 100 to 500 | – |
| CCOCC1CCN(C(=O)c2cccc(C)c2-c2ccc3nc(N)c(N4CCOCC4)cc3c2)CC1 [Example 74, (2-(2-amino-3-morpholinoquinolin-6-yl)-3-methylphenyl)(4-(ethoxymethyl)piperidin-1-yl)methanone] | 1010 to 5000 | < 100 | – |
| Cc1cccc(C(=O)N2CCCC2)c1-c1ccc2nc(N)c(N3CCOC[C@@H]3C)cc2c1 [Example 210, (S)-(2-(2-amino-3-(3-methylmorpholino)quinolin-6-yl)-3-methylphenyl)(pyrrolidin-1-yl)methanone] | 1010 to 5000 | 501 to 1000 | – |
